Experiments:
[1] = Binding affinity to Influenza A virus (A/Puerto Rico/8/1934(H1N1)) PR8 hemagglutinin-1 by biolayer interferometry analysis
[2] = Binding affinity to Influenza A virus (A/Hong Kong/1/1968(H3N2)) […] by biolayer interferometry analysis
[3] = tested on: Influenza A virus (A/Puerto Rico/8/1934(H1N1)); experiment: Binding affinity to Influenza A virus (A/Puerto Rico/8/1934(H1N1)) PR8 hemagglutinin-1 assessed as association constant after 180 secs by biolayer interferometry analysis
[4] = tested on: Influenza A virus (A/Puerto Rico/8/1934(H1N1)); experiment: Binding affinity to Influenza A virus (A/Puerto Rico/8/1934(H1N1)) PR8 hemagglutinin-1 assessed as dissociation constant after 180 secs by biolayer interferometry analysis
[5] = tested on: Influenza A virus (A/Hong Kong/1/1968(H3N2)); experiment: Binding affinity to Influenza A virus (A/Hong Kong/1/1968(H3N2)) […] assessed as association constant after 180 secs by biolayer interferometry analysis
[6] = tested on: Influenza A virus (A/Hong Kong/1/1968(H3N2)); experiment: Binding affinity to Influenza A virus (A/Hong Kong/1/1968(H3N2)) […] assessed as dissociation constant after 180 secs by biolayer interferometry analysis
[7] = tested on: Influenza A virus (A/Puerto Rico/8/1934(H1N1)); experiment: Potency index, ratio of Kd for Arbidol to Kd for test compound for binding affinity to Influenza A virus (A/Puerto Rico/8/1934(H1N1)) PR8 hemagglutinin-1 by biolayer interferometry analysis
[8] = tested on: Influenza A virus (A/Hong Kong/1/1968(H3N2)); experiment: Potency index, ratio of Kd for Arbidol to Kd for test compound for binding affinity to Influenza A virus (A/Hong Kong/1/1968(H3N2)) […] by biolayer interferometry analysis

Structure (SMILES) | Kd ([1]; read-out: Kd) | Kd ([2]; read-out: Kd) | Kd [1] | also measured
CCOC(=O)c1c(CSc2ccc3ccccc3c2)n(C)c2cc(Br)c(O)cc12 | 18 µM | 45 µM |  | 
CCOC(=O)c1c(CSc2ccccc2)n(C)c2cc(Br)c(O)c(CN3CCN(CCO)CC3)c12 |  | 46 µM | Not Active | 
CCOC(=O)c1c(CSc2ccccc2)n(C)c2cc(Br)c(O)cc12 | 38 µM | 11 µM |  | 
CCOC(=O)c1c(CSc2ccccc2)n(C)c2cc(Br)c(O)c(CN3CCN(C(=O)OC(C)(C)C)CC3)c12 | 41 µM |  |  | Kd [2]: Not Active
CCOC(=O)c1c(CSc2ccccc2)n(C)c2cc(Br)c(O)c(CN(C)C)c12 [UMIFENOVIR] | 47 µM | 92 µM |  | K [3]: 1 ×10³ /M/s; K [4]: 4.8 ×10⁻² /s; K [5]: 2.3 ×10² /M/s; K [6]: 2.8 ×10⁻² /s
CCOC(=O)c1c(CSc2cccc(N)c2)n(C)c2cc(Br)c(O)cc12 |  | > 100 µM | Not Active | 
CCOC(=O)c1c(CSc2cccc(O)c2)n(C)c2cc(Br)c(O)cc12 | 75 µM | 17 µM |  | 
CCOC(=O)c1c(CSc2cccc(N)c2)n(C)c2cc(Br)c(O)c(CN(C)C)c12 |  | 7.4 µM | Not Active | 
CCOC(=O)c1c(CSc2cccc(O)c2)n(C)c2cc(Br)c(O)c(CN(C)C)c12 | 0.48 to 0.55 µM |  |  | K [3]: 7.06 ×10⁴ /M/s; K [4]: 3.42 ×10⁻² /s; K [5]: 2.41 ×10⁵ /M/s; Ratio [7]: 98; Ratio [8]: 1150; K [6]: 1.93 ×10⁻² /s
CCOC(=O)c1c(CSc2ccc3ccccc3c2)n(C)c2cc(Br)c(O)c(CN(C)C)c12 |  |  | Not Active | Kd [2]: Not Active

Reference: ChEMBL document CHEMBL4052750, “Structure-based optimization and synthesis of antiviral drug Arbidol analogues with significantly improved affinity to influenza hemagglutinin” (Bioorg Med Chem Lett, 2017)
